Test results taken from patent publication US20250327793A1, “METHODS OF IDENTIFYING COMPOUNDS THAT MODULATE LAUNDRY MALODOR, MOLDY MALODOR, OR SWEAT MALODOR” (Firmenich SA, priority 2017, published 2025).
Counter-ions that a name gives are not always drawn.

Legend:
[1] = biological target: T1, OR51E1 olfactory receptor (Homo sapiens, UniProt Q8TCB6, K299R); assay: Butyric acid olfactory receptor antagonist cell-based inhibitory dose-response assay
T1 construct: expressed in transfected cells
T1 sequence (Q8TCB6 2-318 K299R limits assumed): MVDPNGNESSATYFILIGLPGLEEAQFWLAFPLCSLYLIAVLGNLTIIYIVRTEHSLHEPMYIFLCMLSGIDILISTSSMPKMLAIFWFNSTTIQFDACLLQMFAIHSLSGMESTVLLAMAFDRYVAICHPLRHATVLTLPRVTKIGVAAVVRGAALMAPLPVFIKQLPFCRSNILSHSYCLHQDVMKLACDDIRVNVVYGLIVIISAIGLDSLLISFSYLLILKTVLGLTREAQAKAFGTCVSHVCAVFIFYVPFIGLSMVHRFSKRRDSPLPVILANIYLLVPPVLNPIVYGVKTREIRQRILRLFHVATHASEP

[2] = test system: T2, OR11A1 or OR2M3 olfactory receptor; assay: Geonol olfactory receptor antagonist cell-based inhibitory dose-response assay; set-up: species or system human; settings: Table 2; geonol induced receptor activity, geonol at EC50
T2 construct: fused on or other part: Possibly N-terminal FLAG, Rho and/or Lucy tags

[3] = test system: human sensory panel; assay: Sensory evaluation of geonol earthy/moss odor in binary mixtures with antagonists; assay type: in vivo; settings: percentage of geonol malodor (earthy/moss odor) remaining in binary iso-intense mixture vs REF; * = statistically different from geonol alone
Source text: Sensory Evaluation: Five 16 oz glass jars containing either REF (geonol only), geonol only control, antagonist only, mixture of geonol and isointense antagonist, or mixture of geonol and low intensity antagonist were presented to the panelists (last four samples were randomized across panelists). The panelists were asked to familiarize themselves with the earthy/moss odor quality from the REF jar first, then rate the pleasantness, earthy/moss odor intensity and overall odor intensity of the next four samples on a 0-10 linear scale. The inter-stimulus interval between the samples was two minutes to avoid adaptation.

[4] = Table 4, butyric acid at single activating concentration (EC94)
[5] = Table 5, agonist concentration not given
[6] = Table 5, butyric acid olfactory receptor antagonists, agonist concentration not given

IC50 [1, 4]	Inhibition (%) ([1]; Table 4, butyric acid at EC94)	Molecule	further results
170 µM		CC(=O)O[C@H]([C@H]1CCCC[C@@H]1C)C(C)(C)C (racemic) [[(1~{R})-2,2-dimethyl-1-[(1~{S},2~{S})-2-methylcyclohexyl]propyl] acetate]	
76.9 µM	54%	C[C@H]1CCCC2(CCCC[C@@H]2C)[C@@H]1O (single isomer, unassigned) [(4~{S},5~{R},6~{S},11~{S})-4,11-dimethylspiro[5.5]undecan-5-ol]	
75.7 µM	37%	C=C1C(C)(C)CCCC12CC1(C)OC1(C)C2 (stereo not drawn) [1,1′,1′,5-tetramethyl-2′-methylidenespiro[6-oxabicyclo[3.1.0]hexane-3,3′-cyclohexane]]	
		CC(=O)C1(C)CC(C)C23CCC(CC12)C3 (stereo not drawn) [1-(2,4-dimethyl-4-tricyclo[5.2.1.0^{1,5}]decanyl)ethanone]	Inhibition (%) [1, 5]: 26%; IC50 [1, 6]: 60.5 µM
		CC(=O)OC(C)C1(C)CC(C)C23CCC(CC12)C3 (stereo not drawn) [1-(2,4-dimethyl-4-tricyclo[5.2.1.0^{1,5}]decanyl)ethyl acetate]	Inhibition (%) [1, 5]: 34%; IC50 [1, 6]: 54.8 µM
321 µM	31%	CC1C=CCC(C)C1C(O)C(C)(C)C (stereo not drawn) [1-(2,6-dimethylcyclohex-3-en-1-yl)-2,2-dimethylpropan-1-ol]	
		CC(=O)OC(C)C1CC(C)C23CCC(CC12)C3 (stereo not drawn) [1-(2-methyl-4-tricyclo[5.2.1.0^{1,5}]decanyl)ethyl acetate]	Inhibition (%) [1, 5]: 23%; IC50 [1, 6]: 97 µM
		CC(=O)[C@@]1(C)C(C)[C@H](C)[C@@]23CC[C@H](CC12)C3 (stereo partly drawn) [1-[(1~{S},2~{S},4~{S},7~{R})-2,3,4-trimethyl-4-tricyclo[5.2.1.0^{1,5}]decanyl]ethanone]	IC50 [1, 6]: 32.6 µM
100 µM	61%	C=CCC1(OC)C(C)CCCC1C (stereo not drawn) [1-methoxy-2,6-dimethyl-1-prop-2-enylcyclohexane]	
35.1 µM	119%	C=C(C)CC1(CC(=C)C)CCC(C)(C)C1O (stereo not drawn) [2,2-dimethyl-5,5-bis(2-methylprop-2-enyl)cyclopentan-1-ol]	
51.7 µM	82%	C=C(C)CC1(CC(=C)C)CCC(C)(C)C1=O [2,2-dimethyl-5,5-bis(2-methylprop-2-enyl)cyclopentan-1-one]	
125 µM	110%	C=C(C)CC1(CC(=C)C)CCCC(C)(C)C1O (stereo not drawn) [2,2-dimethyl-6,6-bis(2-methylprop-2-enyl)cyclohexan-1-ol]	
46.6 µM	103%	C=C(C)CC1(CC(=C)C)CCCC(C)(C)C1=O [2,2-dimethyl-6,6-bis(2-methylprop-2-enyl)cyclohexan-1-one]	
		CC1C(C)C23CCC(CC2C1(C)C=O)C3 (stereo not drawn) [2,3,4-trimethyltricyclo[5.2.1.0^{1,5}]decane-4-carbaldehyde]	Inhibition (%) [1, 5]: 28%; IC50 [1, 6]: 270 µM
198 µM	10%	CC1=C(C)CC2(CCC(C)(C)C2=O)C1 [2,3,8,8-tetramethylspiro[4.4]non-2-en-9-one]	
78.7 µM	16%	CC1=C(C)CC2(CCCC(C)(C)C2O)C1 (stereo not drawn) [2,3,9,9-tetramethylspiro[4.5]dec-2-en-10-ol]	
120 µM	12%	CC1CC2(CCCC(C)(C)C2O)CC1C (stereo not drawn) [2,3,9,9-tetramethylspiro[4.5]decan-10-ol]	
81.6 µM	22%	CC1=CC(C)C2(CCCC(C)(C)C2O)C1 (stereo not drawn) [2,4,9,9-tetramethylspiro[4.5]dec-2-en-10-ol]	
110 µM	63%	CC1=CC(C)C2(CCCC(C)(C)C2=O)C1 (stereo not drawn) [2,4,9,9-tetramethylspiro[4.5]dec-2-en-10-one]	
76.4 µM	115%	C=CCC1(C(C)C=C)CCCC(C)(C)C1=O (stereo not drawn) [2-but-3-en-2-yl-6,6-dimethyl-2-prop-2-enylcyclohexan-1-one]	
366 µM	144%	CC1=CCC2(CCCCC2O)C(C(C)C)C1 (stereo not drawn) [3-methyl-5-propan-2-ylspiro[5.5]undec-2-en-11-ol]	
268 µM	102%	CC1C=CCC12CCCC(C)(C)C2=O (stereo not drawn) [4,9,9-trimethylspiro[4.5]dec-2-en-10-one]	
337 µM	105%	COC1C(C)(C)CCC12CCCC2 (stereo not drawn) [4-methoxy-3,3-dimethylspiro[4.4]nonane]	
44.1 µM	91%	CC1(C)CCCC2(CC=CC2)C1O (stereo not drawn) [9,9-dimethylspiro[4.5]dec-2-en-10-ol]	
135 µM	23%	CC1(C)CCCC2(CC=CC2)C1=O [9,9-dimethylspiro[4.5]dec-2-en-10-one]	

IC50 [1, 4]	Inhibition (%) ([1]; Table 4, butyric acid at EC94)	Molecule	further results
238 µM	100%	COC1C(C)(C)CCC12CC=CC2 (stereo not drawn) [9-methoxy-8,8-dimethylspiro[4.4]non-2-ene]	
120 µM	33%	COC1C(C)(C)CCCC12CC=CC2 (stereo not drawn) [10-methoxy-9,9-dimethylspiro[4.5]dec-2-ene]	
68.8 µM	52%	CC1CCCCC12CCCCC2O (stereo not drawn) [11-methylspiro[5.5]undecan-5-ol]	
72.3 µM	72%	CC(=O)OC1C(C)(C)CCCC12C(C)C=CCC2C (stereo not drawn) [(1,5,10,10-tetramethylspiro[5.5]undec-3-en-11-yl) acetate]	
425 µM	39%	CC(=O)OC1C(C)(C)CCCC12CC(C)(C)C(C)(C)C2 (stereo not drawn) [(2,2,3,3,9,9-hexamethylspiro[4.5]decan-10-yl) acetate]	
		CC(=O)OCC1(C)C(C)C(C)C23CCC(CC12)C3 (stereo not drawn) [(2,3,4-trimethyl-4-tricyclo[5.2.1.0^{1,5}]decanyl)methyl acetate]	Inhibition (%) [1, 5]: 27%; IC50 [1, 6]: 60.8 µM
> 600 µM	116%	CC(=O)OC1C(C)(C)CCCC12CC(C)=C(C)C2 (stereo not drawn) [(2,3,9,9-tetramethylspiro[4.5]dec-2-en-10-yl) acetate]	
25.9 µM	69%	CC1=C(C)CC2(CCCC(C)(C)C2OC=O)C1 (stereo not drawn) [(2,3,9,9-tetramethylspiro[4.5]dec-2-en-10-yl) formate]	
51.4 µM	62%	CC(=O)OC1C(C)(C)CCCC12CC(C)C(C)C2 (stereo not drawn) [(2,3,9,9-tetramethylspiro[4.5]decan-10-yl) acetate]	
34.8 µM	131%	CC(=O)OC1C(C)(C)CCCC12CC(C)=CC2C (stereo not drawn) [(2,4,9,9-tetramethylspiro[4.5]dec-2-en-10-yl) acetate]	
71.4 µM	104%	CC(=O)OC1C(C)(C)CCCC12CC=C(C)CC2C (stereo not drawn) [(3,5,10,10-tetramethylspiro[5.5]undec-2-en-11-yl) acetate]	
48.5 µM	106%	CC(=O)OC1C(C)(C)CCCC12CC=CC2C (stereo not drawn) [(4,9,9-trimethylspiro[4.5]dec-2-en-10-yl) acetate]	
44.4 µM	129%	CC1CC=CCC12CCCC(C)(C)C2OC=O (stereo not drawn) [(5,10,10-trimethylspiro[5.5]undec-2-en-11-yl) formate]	
488 µM	107%	CC(=O)OC1C(C)(C)CCC12CC=CC2 (stereo not drawn) [(8,8-dimethylspiro[4.4]non-2-en-9-yl) acetate]	
90.3 µM	32%	CC(=O)OC1C(C)(C)CCCC12CC=CC2 (stereo not drawn) [(9,9-dimethylspiro[4.5]dec-2-en-10-yl) acetate]	
52.6 µM	89%	CC(=O)OC(C1C(C)C=C(C)CC1C)C(C)(C)C (stereo not drawn) [[2,2-dimethyl-1-(2,4,6-trimethylcyclohex-3-en-l-yl)propyl] acetate]	
242 µM	101%	CC(=O)OC(C1C(C)CC(C)CC1C)C(C)(C)C (stereo not drawn) [[2,2-dimethyl-1-(2,4,6-trimethylcyclohexyl)propyl] acetate]	
		CCCCCC/C=C/C=O [nonylenic aldehyde]	% Inhibition [2]: 30%
		CC(=O)OCCc1ccccc1 [phenyl ethyl acetate]	% Remaining in human sensory tests [3]: 47* %
		OCCc1ccccc1 [phenylethylol]	% Remaining in human sensory tests [3]: 58%
		CC(=NO)C1(C)C(C)C(C)[C@]23CC[C@H](CC12)C3 (stereo partly drawn) [~{N}-[1-[(1~{R},7~{R})-2,3,4-trimethyl-4-tricyclo[5.2.1.0^{1,5}]decanyl]ethylidene]hydroxylamine]	IC50 [1, 6]: 79.7 µM
		CC(=NO)C1C(C)C(C)C23CCC(CC12)C3 (stereo not drawn) [~{N}-[1-[(1~{S},7~{R})-2,3-dimethyl-4-tricyclo[5.2.1.0^{1,5}]decanyl]ethylidene]hydroxylamine]	Inhibition (%) [1, 5]: 19%; IC50 [1, 6]: 76.6 µM
		CC1CC(C)(C=NO)C2C[C@H]3CC[C@]12C3 (stereo partly drawn) [~{N}-[[(1~{S},7~{R})-2,4-dimethyl-4-tricyclo[5.2.1.0^{1,5}]decanyl]methylidene]hydroxylamine]	IC50 [1, 6]: 88.5 µM
		isopropyl quinoline	% Remaining in human sensory tests [3]: 110%
